Experimental data published in patent US20040132969A1, “Antibodies, peptides, analogs and uses thereof” (priority 2000, published 2004).
“Also recorded” adds a separate entry of the source.

Key:
[1] = tested on: human umbilical vein endothelial cells (HUVEC) co-cultured with primary human diploid fibroblasts; assay: Angiosys co-culture angiogenesis assay (HUVEC tubule formation); assay type: cell-based
Excerpt: The recently developed Angiosys™ co-culture angiogenesis assay (TCS Cell Works, Botolph Claydon, UK) was employed to examine the biological activity of the fibrin E analogue peptides WTM33, WTM34, WTM35, WTM36, and WTM37. This assay involves the co-culturing of human umbilical vein endothelial cells (HUVEC) with primary human diploid fibroblasts. In control cultures treated by the standard method as supplied by the manufacturers, both cell populations increase in number to form a confluent fibroblast monolayer on top off which the HUVEC cells form into corded structures. These structures thicken and anastomose by day 14 to form an intricate network of microvessel-like structures that resemble a capillary bed. It has previously been shown that the control conditions in this assay result in an intermediate degree of formation of these microtubules that can be enhanced by angiogenic effectors such as vascular endothelial growth factor (VEGF), or reduced by anti-angiogenic agents such as suramin (33).
The Angiosys™ assay was used as directed by the manufacturer. Briefly, HUVEC and human diploid fibroblasts were admixed, seeded into 24-well culture plates and incubated for 14 days in endothelial cell culture medium (ECM, TCS Cell Works). This medium, which was replaced with fresh every second day, contains angiogenic factors such as VEGF. Fibrin E analogue peptides were dissolved in this same medium to the indicated concentrations and applied to the cells in the same way as control medium. After the incubation period of 14 days, medium was removed and the cells were fixed in situ at room temperature in 70% ethanol and viewed with an MRC 600 confocal microscope (Bio-Rad). Images were captured using a JVC videocamera mounted on the microscope and coupled to a Neotech Image Grabber/PC.
The table illustrates the […] effects of peptide WTM 35 and 36 (0.19-0.75 μg/ml) on HUVEC tubule formation in the Angiosys™ co-culture angiogenesis assay, compared with an untreated control. The table show the average tubule length obtained using an image analysis package for the PC which transforms the visual data into pixels: […]

[2] = tested on: HUVEC and fibroblasts; assay: Neutral Red cell metabolism cytotoxicity assay; assay type: cell-based, human; details: HUVEC and fibroblast monocultures; 72 hours
Procedure: In order to determine whether the fibrin E analogue peptides WTM33, WTM34, WTM35, WTM36, and WTM37 are cytotoxic when applied to the HUVEC and fibroblasts used in the Angiosys™ angiogenesis assay, these reagents were examined in two different cytotoxicity assays. To simplify performance of these assays and discriminate between fibroblasts and HUVEC, cells were grown in monocultures rather than together and then treated with the experimental reagents as described below.
A Neutral Red cell metabolism assay was used to determine the cytotoxicity to HUVEC and fibroblasts of the fibrin E analogue peptides. This assay works on the basis of colorimetric measurement of a red dye which, is reported to be taken up into the lysosomes of uninjured cells. Thus the stronger the colour signal obtained from a well of cells, the greater the percentage of cells remaining viable within that well. HUVEC cells were inoculated into wells of 96 wells at a density of 5×10^3 cells per well, in endothelial cell culture medium. Fibroblasts were similarly seeded 5×10^3 cells per well. The cells were incubated for 24 hours under standard conditions to permit adherence and growth, and then treated for 72 hours with fresh medium containing fibrin E peptides over the same range of concentrations used in the Angiosys™ angiogenesis assay. For each concentration of each of the six peptides, four replicate wells of each cell type were treated and then assayed. Following incubation with the test compounds, the medium was removed and replaced with 200 μl per well of fresh medium containing 3.57 mg neutral red per 100 ml. The cells were incubated with this neutral red solution for 3 hours, after which this solution was decanted and replaced with 100 μl 1% formaldehyde/1% CaCl2. This was rapidly decanted and replaced in turn with 200 μl 50% ethanol/1% acetic acid, which was incubated at room temperature for 30 minutes to extract the neutral red from the cells. The plates were then read in a 96 well plate-format spectrophotometer, measuring absorbance at 540 nm. Mean absorbance values from each group of four wells were calculated and expressed as a percentage±standard deviation of the mean value obtained from control wells incubated in the absence of fibrin E analogue peptide.

LHADPDLGVLCPTGC [WTM34]
HUVEC tubule formation (in words) ([1]; 0.75, 0.38 and 0.19 μg/ml): inhibit HUVEC tubule formation; also recorded: complete inhibition - no tubule | toxic effect (number of fibroblasts and endothelial cells present) ([1]; Angiosys system): did not have a toxic effect | HUVEC tubule formation (in words) ([1]; across the range of / all concentrations): inhibition of HUVEC tubule formation; also recorded: most inhibitory | HUVEC tubule formation (in words) ([1]; lowest applied doses of 3 μg/ml): markedly reduced the formation of tubules | cytotoxicity / cell viability, Neutral Red assay [2]: not cytotoxic; also recorded: no toxicity
